Test system: mesenchymal stem cells
Assay: GeneChip analysis using mesenchymal stem cells
Type: cell-based, human
Conditions: 1,5-AG reduced from 40 μg/mL to 1 μg/mL or less, 10th day
Method: GeneChip analysis using mesenchymal stem cells was carried out to clarify the function of 1,5-AG in a human. After 1,5-AG was added to a medium to ensure that the final concentration of 1,5-AG became not more than 1 μg/mL or 40 μg/mL and the mesenchymal stem cells were cultured for 10 days, total RNA was collected to carry out GeneChip analysis so as to analyze genes which were expressed and fluctuated according to the difference in the amount of 1,5-AG cyclopaedically. A similar test was carried out 3 times to obtain results which were then summarized and analyzed. The test was carried out by the following method.
Crystalline 1,5-AG was dissolved in pure water to a concentration of 40 mg/mL and filtered with a centrifugal ultrafiltration membrane having a molecular weight cut-off of 3,000 to remove trace macromolecules.
Mesenchymal cells derived from bone marrow (Riken Cell Bank, Resource No. MSC-R46)
DMEM prepared by adding 10% fetal bovine serum (FBS) and a 3 ng/mL fibroblast growth factor (FGF-2) (to be referred to as “growth medium” hereinafter) was used for the preculture of the mesenchymal stem cells. 10% FBS-added DMEM (to be referred to as “test medium” hereinafter) was used in this test. FGF-2 has the function of keeping the undifferentiated state of the mesenchymal stem cells, and the undifferentiated state of the cells was maintained by using the FGF-2-added medium during preculture. In this test, to analyze the differentiation-inducing effect of the sample, a medium containing no FGF-2 was used.
The human mesenchymal cells were initiated in a T-75 flask by using the growth medium and cultured in a CO2 incubator (5% CO2, 37° C., moistening). Medium exchange was carried out every 2 days, and the cells were separated by using 0.25% Trypsin/EDTA when 80% confluence was reached and collected to be used in this test.
The sample was added to a test medium to ensure that the final concentration of 1,5-AG became 40 μg/mL. […]

OC[C@H]1OC[C@H](O)[C@@H](O)[C@@H]1O [1,5-AG, 1,5-anhydro-D-glucitol]
expression of CSH-1: decreases as well | expression of interleukin 6 signal transducer (IL6ST) gene: reduced most | expression of pregnancy specific beta-1-glycoprotein 1 (PSG-1) gene (rank among genes whose expression was reduced): observed after these

Reference: US20170223976A1, “MODIFIED MILK POWDER CONTAINING 1,5-ANHYDRO-D-GLUCITOL” (NIHON STARCH CO., LTD., priority 2015, published 2017)
